Source: US6806278B2, “Amino-tetralin derivatives as muscarinic receptor antagonists” (Syntex (U.S.A.) LLC, priority 2001, dated 2004)

Experiments:
[1] = target: T1, recombinant human muscarinic receptor m2 (Homo sapiens, UniProt P08172); assay: Radioligand binding studies, [3H]N-methyl scopolamine, m2; settings: CHO cell membranes, [3H]N-methyl scopolamine 0.4 nM; pIC50 converted to pKi by Cheng-Prusoff
T1 construct: expressed in transfected cells; host or cells: Chinese hamster ovary (CHO) cells, membrane preparation
T1 sequence (P08172 1-466): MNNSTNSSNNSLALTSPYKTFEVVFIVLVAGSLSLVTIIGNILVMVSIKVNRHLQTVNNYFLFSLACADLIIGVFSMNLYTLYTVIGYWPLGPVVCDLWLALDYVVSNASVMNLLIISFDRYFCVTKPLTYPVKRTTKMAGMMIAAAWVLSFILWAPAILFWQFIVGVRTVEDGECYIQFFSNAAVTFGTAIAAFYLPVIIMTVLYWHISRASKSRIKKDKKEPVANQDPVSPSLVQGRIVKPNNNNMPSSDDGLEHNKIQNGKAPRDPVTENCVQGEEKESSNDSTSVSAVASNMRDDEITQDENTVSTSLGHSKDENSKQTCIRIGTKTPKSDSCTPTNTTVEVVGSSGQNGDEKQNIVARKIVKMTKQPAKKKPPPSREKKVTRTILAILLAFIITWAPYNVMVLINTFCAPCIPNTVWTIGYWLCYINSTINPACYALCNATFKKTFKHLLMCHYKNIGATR
Protocol: (§1) The compounds of this invention are muscarinic receptor antagonists. The muscarinic receptor affinity of test compounds can be determined by an in vitro receptor binding assay which utilizes a cell membrane preparation from the Chinese hamster ovary cells expressing the recombinant human muscarinic receptors (M1-M5), and is described in more detail in Example 12.
(§2) The inhibitory activity of compounds of this invention in vitro was determined using a modification of the method described in Hegde, S. S. et al. 1997 Br. J. Pharmacol., 120, 1409-1418.
(§3) Cell membranes from Chinese hamster ovary cells expressing the recombinant human muscarinic receptors (m1-m5) were employed. The assays were conducted with the radioligand [^3H]N-methyl scopolamine (0.4 nM, specific activity 84 Ci·mmol^−1) in a final volume of 0.25 mL Tris-Krebs buffer. Non-specific binding was defined with 1 μM atropine. Assays were performed using scintillation proximity assay technology. Competition-displacement curves were generated using 10 concentrations of test compounds and were analyzed by iterative curve fitting to a four parameter logistic equation. pIC50 values (-log of the IC50) were converted to pKi values using the Cheng-Prusoff equation.

[2] = target: T2, recombinant human muscarinic receptor m3 (Homo sapiens, UniProt P20309); assay: Radioligand binding studies, [3H]N-methyl scopolamine, m3; settings: CHO cell membranes, [3H]N-methyl scopolamine 0.4 nM; pIC50 converted to pKi by Cheng-Prusoff
T2 construct: expressed in transfected cells; host or cells: Chinese hamster ovary (CHO) cells, membrane preparation
Protocol: as §1, §2, §3

T2 sequence (P20309 whole entry): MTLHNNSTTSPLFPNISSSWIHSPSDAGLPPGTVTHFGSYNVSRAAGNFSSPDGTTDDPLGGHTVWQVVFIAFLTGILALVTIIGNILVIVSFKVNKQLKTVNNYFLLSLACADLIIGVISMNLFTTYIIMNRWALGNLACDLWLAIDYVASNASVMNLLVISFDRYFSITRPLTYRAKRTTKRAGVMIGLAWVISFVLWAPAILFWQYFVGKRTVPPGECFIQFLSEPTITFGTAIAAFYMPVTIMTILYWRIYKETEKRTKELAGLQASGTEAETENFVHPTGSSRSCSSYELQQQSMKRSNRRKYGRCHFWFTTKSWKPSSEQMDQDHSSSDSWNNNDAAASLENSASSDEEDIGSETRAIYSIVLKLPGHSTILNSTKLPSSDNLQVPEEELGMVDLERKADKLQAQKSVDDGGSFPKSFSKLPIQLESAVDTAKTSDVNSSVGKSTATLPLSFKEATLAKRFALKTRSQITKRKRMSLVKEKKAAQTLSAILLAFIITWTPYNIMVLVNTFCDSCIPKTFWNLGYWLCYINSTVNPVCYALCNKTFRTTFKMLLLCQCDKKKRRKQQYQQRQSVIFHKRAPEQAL

Row | Ki [1] | Ki [2] | SMILES
1 | 4.27 nM | 6.76 nM | CCCN(C1CCN(C(C)=O)CC1)C1CCc2ccc(OC)cc2C1 (centres unmarked) [Cpd 15, 1-{4-[(7-methoxy-1,2,3,4-tetrahydro-naphthalen-2-yl)-propyl-amino]-piperidin-1-yl}ethanone]
2 | 2.69 nM | 1.48 nM | CCCN(C1CCN(C(=O)N2CCOCC2)CC1)C1CCc2ccc(OC)cc2C1 (centres unmarked) [Cpd 1, {4-[(7-methoxy-1,2,3,4-tetrahydro-naphthalen-2-yl)-propyl-amino]-piperidin-1-yl}-morpholin-4-yl-methanone]
3 | 26.3 nM | 51.3 nM | CCCN(C1CCN(C(=O)c2ccco2)CC1)C1CCc2ccc(OC)cc2C1 (centres unmarked) [Cpd 4, furan-2-yl-{4-[(7-methoxy-1,2,3,4-tetrahydro-naphthalen-2-yl)-propyl-amino]-piperidin-1-yl}-methanone]
4 | 5.01 nM | 11.5 nM | CCCN(C1CCN(C(=O)C2CCNCC2)CC1)C1CCc2cc(OC)c(OC)cc2C1 (centres unmarked) [Cpd 28, {4-[(6,7-dimethoxy-1,2,3,4-tetrahydro-naphthalen-2-yl)-propyl-amino]-piperidin-1-yl}-piperidin-4-yl-methanone]
5 | 2.19 nM | 0.955 nM | CCCN(C1CCN(C(=O)C2CCNCC2)CC1)[C@@H]1CCc2ccc(OC)cc2C1 [Cpd 39, {4-[((R)-7-methoxy-1,2,3,4-tetrahydro-naphthalen-2-yl)-propyl-amino]-piperidin-1-yl}-piperidin-4-yl-methanone]
6 | 0.575 nM | 2.75 nM | CCCN(C1CCN(C(=O)N2CCN(C)CC2)CC1)C1CCc2ccc(OC)cc2C1 (centres unmarked) [Cpd 23, {4-[(7-methoxy-1,2,3,4-tetrahydro-naphthalen-2-yl)-propyl-amino]-piperidin-1-yl}-(4-methyl-piperazin-1-yl)-methanone]
7 | 3.16 nM | 5.89 nM | CCCN(C1CCN(C(=O)N(CC)CC)CC1)C1CCc2ccc(OC)cc2C1 (centres unmarked) [Cpd 5, 4-[(7-methoxy-1,2,3,4-tetrahydro-naphthalen-2-yl)-propyl-amino]-piperidine-1-carboxylic acid diethylamide]
8 | 41.7 nM | 49 nM | CCCN(C1CCN(C(=O)c2ccccc2C)CC1)C1CCc2ccc(OC)cc2C1 (centres unmarked) [Cpd 3, {4-[(7-methoxy-1,2,3,4-tetrahydro-naphthalen-2-yl)-propyl-amino]-piperidin-1-yl}o-tolyl-methanone]
9 | 0.977 nM | 1.58 nM | CCCN(C1CCN(C(=O)N2CCNCC2)CC1)C1CCc2ccc(OC)cc2C1 (centres unmarked) [Cpd 16, {4-[(7-methoxy-1,2,3,4-tetrahydro-naphthalen-2-yl)-propyl-amino]-piperidin-1-yl}-piperazin-1-yl-methanone]
10 | 1.82 nM | 0.891 nM | CCCN(C1CCN(C(=O)C2CCNCC2)CC1)C1CCc2ccc(Br)cc2C1 (centres unmarked) [Cpd 35, {4-[(7-bromo-1,2,3,4-tetrahydro-naphthalen-2-yl)-propyl-amino]-piperidin-1-yl}-piperidin-4-yl-methanone]
